The results in this text go back to US20120157401A1, “METHODS FOR TREATING NEUROFIBROMATOSIS” (PTC Therapeutics, Inc., priority 2009, published 2012).

Marks after values point to notes of the source that are not given here.

Data set [1] relates to HT1080 cells. The data set can be described thus: Kinetics of S-phase transit by BrdU incorporation in HT1080 cells. It is filed as cell-based, human. Here is the method: Experimental Design. HT 1080 cells are exposed to BrdU (bromodeoxyuridine, a synthetic nucleoside that is an analogue of thymidine and is incorporated into DNA during the S phase of cell division) (FITC BrdU Flow Kit, BD Pharmingen catalog #552598). Cells are grown and treated as described in Section 9.3.1.3 above with the exception that one hour prior to harvesting by trypsinization, BrdU (final concentration 1 μM) is added to each culture for 1 hour. Cells actively replicating DNA during this brief time incorporate the BrdU into the DNA, which can then be quantitated. BrdU content is quantitated with using the FITC BrdU Flow Kit as instructed by the manufacturer. The process includes fixation (paraformaldehyde) and DNA staining with 7-AAD (7-amino-actinomycin D) followed by incubation with a fluoro-tagged anti-BrdU antibody that specifically recognizes BrdU incorporated into DNA. Dual channel FACS analysis permits assessment of both the DNA content of individual cells and the rate of transit across the S-phase, which is assessed based upon BrdU incorporation over the one hour treatment period.
On the technique in general: Incorporation of labelled thymidine or its analogues reports DNA synthesis.

The nature of data set [2]: Cardiovascular safety pharmacology in awake telemeterized dogs. The data set is classed as in vivo, beagle dogs. The conditions noted are these: single oral doses of 30, 60, and 120 mg/kg, male dogs.
In data set [3] the test system is HT1080 cells. The data set can be described thus: Reversibility of cell cycle delay after washout in HT1080 cells. The data set is classed as cell-based, human. The conditions noted are these: HT1080, 100 nM for 14 hours, then washout.
Another data set deals with T1, CYP1A2 (Homo sapiens, UniProt P05177).
T1 construct: host or cells: human hepatic microsomes or recombinant isoenzyme (not distinguished)
The data set can be described thus: CYP inhibition: CYP1A2. It is filed as in vitro ADME. The settings on record: human hepatic microsomes or recombinant isoenzymes. The text has this: (§1) It is possible that in certain clinical trial subjects, such agents may need to be adjusted for dosing or replaced by alternative agents that are not metabolized by CYP2D6, particularly when such agents may have a low therapeutic index.

The next data set deals with T2, CYP2D6 (Homo sapiens, UniProt P10635).
T2 construct: host or cells: human hepatic microsomes or recombinant isoenzyme (not distinguished)
The data set can be described thus: CYP inhibition in human hepatic microsomes / recombinant isoenzymes: CYP2D6. It is filed as in vitro ADME. The conditions noted are these: human hepatic microsomes or recombinant isoenzymes.
Description: as §1

For the next data set, the system named is tumor VEGF. The data set can be described thus: Tumor VEGF content ELISA in microvessel density study, HT1080 xenografts. It is filed as in vivo, human. The conditions noted are these: racemic mixture, 5 mg/kg of Compound #10 oral BID, 10 days. The protocol: Experimental Design. HT1080 cells (5×10^6 cells/mouse) were implanted subcutaneously in male athymic nude mice.
At the end of treatment, the mice were sacrificed. Excised tumors were assayed by ELISA for VEGF content as described in Section 9.1.1.1, and were sectioned and immunostained with an anti murine CD31 antibody that is specific for endothelial cells.

In a further data set the test system is Human VEGF-A. The data set can be described thus: HT1080 xenograft selectivity studies: intratumoral VEGF-A ELISA. The data set is classed as in vivo. The conditions noted are these: Study 5, 15-days, treatment initiated at ~600 mm^3. The text has this: Experimental Design. […] All of these factors can be produced at tumor sites, and all may support tumor growth and metastases. See Yoon et al., Circ Res. 2003, 93(2):87 90; Ferrara et al., Nat. Rev. Drug Discov. […] Biophys. Acta 2004,1654(1):79 94; Saharinen et al., Trends Immunol. 2004, 25(7):387 95. There is also evidence that VEGF-A may stimulate production of P1GF by a post transcriptional mechanism. See Yao et al., FEBS Lett. 2005, 579(5):1227 34. VEGF-B was not assessed. […] See Vagner at al., Mol. Cell. Biol. 1995, 15(1):35 44; Hellen et al., Genes Dev. 2001, 15(13):1593 612. The survivin protein was similarly evaluated because the survivin mRNA has an IRES. PDGF was assessed because this protein has angiogenic activity and its mRNA contains an IRES. See Sella et al., Mol. Cell. Biol. 1999, 19(8):5429 40; Hellen et al., supra. Endostatin was included because antiangiogenic treatment in vivo has shown that compensatory […] in endogenous angiogenic inhibitors such as endostatin, thrombospondin, and angiostatin, results in a more pro angiogenic environment. See Sim, Angiogenesis, 1998, 2(1):37-48.
In all of these experiments, HT1080 cells (5×10^6 cells/mouse) were implanted subcutaneously in male athymic nude mice. When tumors had become established, mice were divided into groups (10 mice/group). […] Tumor size was measured by calipers at the beginning and end of treatment. […]
In general terms: ELISA stands for enzyme-linked immunosorbent assay.

The test system of another data set is SY5Y xenografts. The data set can be described thus: SY5Y neuroblastoma subcutaneous xenograft: tumor growth. It is filed as in vivo. Here is the method:
Experimental Design. SY5Y cells are derived from a human neuroblastoma, a childhood tumor arising in neural crest cells. SY5Y cells (1×10^7 cells/mouse) were implanted subcutaneously in male athymic nude mice.
Tumor size was measured by calipers at periodic intervals. When the average tumor size in a group exceeded 2000 mm^3, the mice in the group were sacrificed and excised tumors were assayed for intratumoral VEGF concentration as described in Section 9.1.1.1.

Data set [4] relates to HT1080 cells. The data set can be described thus: HT1080 spheroid cell viability and mobility (migration after re-plating). It is filed as cell-based, human. The protocol: Experimental Design. […] Pictures were then taken 48 hours to assess the migration and proliferation of the cells across the well's surface.
For data set [5], the system named is human VEGF121 and VEGF165. The data set can be described thus: HT1080 xenograft dose response: intratumoral and pathologic plasma human VEGF ELISA. The data set is classed as in vivo. The protocol:
Experimental Study Design. HT1080 cells (5×10^6 cells/mouse) were implanted subcutaneously in male athymic nude mice.
Tumor size was measured using calipers at periodic intervals during the study (data shown in Section 9.2.2). […] The study was ended after 18 days, when the vehicle treated tumors reached a mean volume of ˜1755 mm^3. […] Mice were sacrificed, and excised tumors were homogenized in buffer containing protease inhibitors. Both terminal intratumoral and pathologic plasma human VEGF levels were measured using an ELISA that recognizes human VEGF121 and VEGF165 (as described in Section 9.1.1.1). Intratumoral VEGF levels were normalized to the total tumor protein concentration, while pathologic plasma human VEGF levels were expressed in pg/mL of plasma.
(Xenograft models place foreign cells or tissue in a host animal.)

Where [6] appears, read: 50 mg/kg QD, 5 days per week (Table 18).
Setting [7] is: all Compound #10 dose groups (0.3-10 mg/kg, oral, 18 days).

T2 sequence (P10635 whole entry): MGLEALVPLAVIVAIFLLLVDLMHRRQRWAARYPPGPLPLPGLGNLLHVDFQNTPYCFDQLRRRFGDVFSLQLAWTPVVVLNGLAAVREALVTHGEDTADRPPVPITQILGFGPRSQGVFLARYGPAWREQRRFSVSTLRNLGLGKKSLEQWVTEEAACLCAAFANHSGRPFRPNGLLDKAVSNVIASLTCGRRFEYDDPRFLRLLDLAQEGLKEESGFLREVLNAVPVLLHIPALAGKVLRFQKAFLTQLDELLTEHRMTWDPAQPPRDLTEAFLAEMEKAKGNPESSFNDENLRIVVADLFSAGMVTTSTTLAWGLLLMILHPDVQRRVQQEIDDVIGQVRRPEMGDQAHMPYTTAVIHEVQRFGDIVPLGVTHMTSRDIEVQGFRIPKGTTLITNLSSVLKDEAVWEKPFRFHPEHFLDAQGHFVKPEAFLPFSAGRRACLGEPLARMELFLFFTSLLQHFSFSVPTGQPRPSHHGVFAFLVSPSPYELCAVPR
T1 sequence (P05177 whole entry): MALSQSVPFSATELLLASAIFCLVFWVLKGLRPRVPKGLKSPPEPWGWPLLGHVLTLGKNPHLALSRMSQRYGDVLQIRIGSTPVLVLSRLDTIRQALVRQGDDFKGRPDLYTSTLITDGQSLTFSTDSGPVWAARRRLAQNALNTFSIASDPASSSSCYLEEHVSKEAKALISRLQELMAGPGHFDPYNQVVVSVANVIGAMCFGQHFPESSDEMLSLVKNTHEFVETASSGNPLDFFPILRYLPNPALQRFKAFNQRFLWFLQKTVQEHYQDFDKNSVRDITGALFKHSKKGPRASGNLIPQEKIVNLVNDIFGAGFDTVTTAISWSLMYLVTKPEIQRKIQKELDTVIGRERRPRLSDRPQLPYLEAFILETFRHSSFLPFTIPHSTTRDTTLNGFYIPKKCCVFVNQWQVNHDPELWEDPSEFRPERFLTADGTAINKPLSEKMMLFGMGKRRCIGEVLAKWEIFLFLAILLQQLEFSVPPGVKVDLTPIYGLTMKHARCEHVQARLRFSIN

For the compound `COc1ccc(C2c3[nH]c4ccc(Cl)cc4c3CCN2C(=O)Oc2ccc(Cl)cc2)cc1` (racemic) [Compound #10], the “Percentage of cells residing in S-phase” value with HT1080 cells [1] (HT1080, 18-hour treatment, increasing doses) is “net increase”. Further, the “BrdU incorporation of individual cells vs DMSO control” value in the data set on HT1080 cells [1] (HT1080, one-hour BrdU pulse after 18-hour treatment) is “incorporated less BrdU”. For the same compound, the “Changes in cardiovascular or electrocardiographic (including QT interval) parameters” value in [2] is given as “no meaningful changes”. The “Time after washout by which cells had resumed normal cycling” value with HT1080 cells [3] was not above 26 h. The “Inhibition of CYP1A2” value at CYP1A2 was “No meaningful inhibition”. Further, at CYP2D6, the “Inhibition of CYP2D6 isoenzyme activity” value is “inhibits the activity”. In the data set on tumor VEGF, the “Mean inhibition of tumor VEGF concentration” value was determined as 95%. Further, the “Decrease in intratumoral VEGF levels” value in the data set on Human VEGF-A is on record as 78%. In the data set with SY5Y xenografts (setting [6]), the “Mean % Inhibition of Tumor Size vs Vehicle at Day 17” value is reported as 73* % and the “Median Time to Tumor Size ≧1000 mm^3” value stood at 35 days. Moreover, the “Toxicity on observing the animals” value with SY5Y xenografts (SY5Y xenograft mice) is reported as “no evidence of toxicity”. Also, in the data set with HT1080 cells [4] (50 nM for 3 weeks), the “Proliferative and migratory capacity after three-week exposure, re-plated in the absence of compound” value is reported as “does not reduce either the proliferative or the migratory capacity”. Moreover, the “Migration of cells out of control spheroids re-plated in the presence of compound” value in the data set with HT1080 cells [4] (50 nM, 48 hours) was “blocked in their ability to migrate out of the spheroid”. In addition, the “Reduction in tumor and pathologic plasma human VEGF concentrations” value in data set [5] (0.3 mg/kg BID) is given as “partial reductions”. Further, in data set [5] (setting [7]), the “Pathologic human VEGF levels in plasma” value was “significantly suppressed” and the “Pathologic human VEGF levels in tumors” value was “significantly suppressed”. For the same compound, the “Reduction in tumor and pathologic plasma human VEGF concentrations” value in [5] (dose levels of ≧1 mg/kg BID) is listed as “essentially maximal”.
